The record followed here is patent US20100184674A1, “PROADRENOMEDULLIN ALONE OR IN COMBINATION WITH BIG GASTRIN I AS A THERAPEUTIC AGENT” (priority 2007, published 2010).

The assay has as its system drug-resistant Mycobacterium tuberculosis. In kind it is cell-based. As to conditions: 10 micrograms per ml; seven days; strain resistant against PAS, streptomycin and isoniazid.

Where no end group is shown, it is not given here. [ ]: non-standard residue; d: D form. pGlu = O=C1CC[C@@H](C(=O)O)N1

Turning to “Pyr-Leu-Gly-Pro-Gln-Gly-Pro-Pro-His-Leu-Val-Ala-Asp-Pro-Ser-Lys-Lys-Gln-Gly-Pro-Trp-Leu-Glu-Glu-Glu-Glu-Glu-Ala-Tyr-Gly-Trp-Met-Asp-Phe-NH2 ([pGlu]LGPQGPPHLVADPSKKQGPWLEEEEEAYGWMDF-NH2; SMILES CSCC[C@H](NC(=O)[C@H](Cc1c[nH]c2ccccc12)NC(=O)CNC(=O)[C@H](Cc1ccc(O)cc1)NC(=O)[C@H](C)NC(=O)[C@H](CCC(=O)O)NC(=O)[C@H](CCC(=O)O)NC(=O)[C@H](CCC(=O)O)NC(=O)[C@H](CCC(=O)O)NC(=O)[C@H](CCC(=O)O)NC(=O)[C@H](CC(C)C)NC(=O)[C@H](Cc1c[nH]c2ccccc12)NC(=O)[C@@H]1CCCN1C(=O)CNC(=O)[C@H](CCC(N)=O)NC(=O)[C@H](CCCCN)NC(=O)[C@H](CCCCN)NC(=O)[C@H](CO)NC(=O)[C@@H]1CCCN1C(=O)[C@H](CC(=O)O)NC(=O)[C@H](C)NC(=O)[C@@H](NC(=O)[C@H](CC(C)C)NC(=O)[C@H](Cc1c[nH]cn1)NC(=O)[C@@H]1CCCN1C(=O)[C@@H]1CCCN1C(=O)CNC(=O)[C@H](CCC(N)=O)NC(=O)[C@@H]1CCCN1C(=O)CNC(=O)[C@H](CC(C)C)NC(=O)[C@@H]1CCC(=O)N1)C(C)C)C(=O)N[C@@H](CC(=O)O)C(=O)N[C@@H](Cc1ccccc1)C(N)=O) [Peptide 2]”, the “inhibition of the growth of Mycobacterium tuberculosis” value was 100%.
Regarding “Ala-Arg-Leu-Asp-Val-Ala-Ser-Glu-Phe-Arg-Lys-Lys-Trp-Asn-Lys-Trp-Ala-Leu-Ser-Arg-NH2 (ARLDVASEFRKKWNKWALSR-NH2) [Peptide 1]”, the “inhibition of the growth of Mycobacterium tuberculosis” value stood at 100%.
